Results as given in ChEMBL document CHEMBL1201862, “PubChem BioAssay data set” (2004).
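Where inhibition never reached the appropriate level, the endpoint shown equals the highest concentration tested. Otherwise, values were interpolated linearly from a five-concentration, 48-hour dose response in 96-well plates. Here, GI50 denotes the concentration required for 50% inhibition of growth.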 Active and inactive are the calls of the source. No stated cut-off is given here; in the data, active = GI50 up to about 1.1 µM and inactive = higher.

Tests used:
Assay in all cases: NCI anticancer screen, dose series, 48 h
A498 = test system: A498
A549 = test system: A549
CAKI-1 = test system: CAKI-1
CCRF-CEM = test system: CCRF-CEM
COLO 205 = test system: COLO 205
DLD-1 = test system: DLD-1
DMS-114 = test system: DMS-114
DMS-273 = test system: DMS-273
EKVX = test system: EKVX
HCC 2998 = test system: HCC 2998
HCT-116 = test system: HCT-116
HCT-15 = test system: HCT-15
HL-60 = test system: HL-60
HOP-18 = test system: HOP-18
HOP-62 = test system: HOP-62
HOP-92 = test system: HOP-92
HT-29 = test system: HT-29
IGROV-1 = test system: IGROV-1
K562 = test system: K562
KM-20L2 = test system: KM-20L2
KM12 = test system: KM12
LOX IMVI = test system: LOX IMVI
M19-MEL = test system: M19-MEL
MCF7 = test system: MCF7
MOLT-4 = test system: MOLT-4
Malme-3M = test system: Malme-3M
NCI-H226 = test system: NCI-H226
NCI-H23 = test system: NCI-H23
NCI-H460 = test system: NCI-H460
NCI-H522 = test system: NCI-H522
NCI/ADR-RES = test system: NCI/ADR-RES
OVCAR-3 = test system: OVCAR-3
OVCAR-4 = test system: OVCAR-4
OVCAR-5 = test system: OVCAR-5
OVCAR-8 = test system: OVCAR-8
RPMI-8226 = test system: RPMI-8226
RXF 393 = test system: RXF 393
SF-268 = test system: SF-268
SF-295 = test system: SF-295
SF-539 = test system: SF-539
SK-MEL-28 = test system: SK-MEL-28
SK-MEL-2 = test system: SK-MEL-2
SK-MEL-5 = test system: SK-MEL-5
SK-OV-3 = test system: SK-OV-3
SN12C = test system: SN12C
SNB-19 = test system: SNB-19
SNB-75 = test system: SNB-75
SNB-78 = test system: SNB-78
SW-620 = test system: SW-620
U-251 = test system: U-251
UACC-257 = test system: UACC-257
UACC-62 = test system: UACC-62
UO-31 = test system: UO-31
XF498 = test system: XF498

In the case of C#CC[N+](CCO)(CCO)CCCCCCCCCCCCCCCCCC, the GI50 (A498) is reported as 17.2 µM (inactive), the GI50 (A549) is reported as 15.7 µM (inactive) and the GI50 (CAKI-1) is reported as 5.87 µM (inactive). The GI50 (CCRF-CEM) was 2.03 µM (inactive), the GI50 (COLO 205) was 11.2 µM (inactive) and the GI50 (DLD-1) was 9.25 µM (inactive). For the same compound, the GI50 (DMS-114) was 10.3 µM (inactive), the GI50 (DMS-273) was 4.9 µM (inactive) and the GI50 (EKVX) was 21.7 µM (inactive). The GI50 (HCC 2998) was 11.5 µM (inactive), the GI50 (HCT-116) was 8.41 µM (inactive) and the GI50 (HCT-15) was 15.3 µM. The GI50 (HL-60) was 1.55 µM (inactive), the GI50 (HOP-18) was 9.33 µM (inactive) and the GI50 (HOP-62) was 11.4 µM (inactive). The GI50 (HOP-92) was 2 µM (inactive), the GI50 (HT-29) was 4.59 µM (inactive) and the GI50 (IGROV-1) was 2.18 µM (inactive). For the same compound, the GI50 (K562) was 5.24 µM (inactive), the GI50 (KM-20L2) was 7.1 µM (inactive) and the GI50 (KM12) was 3.55 µM (inactive). The GI50 (LOX IMVI) was 4.81 µM (inactive), the GI50 (M19-MEL) was 9.16 µM (inactive) and the GI50 (MCF7) was 14.8 µM (inactive). The GI50 (MOLT-4) was 2.91 µM (inactive), the GI50 (Malme-3M) was 18.4 µM (inactive) and the GI50 (NCI-H226) was 12.6 µM (inactive). The GI50 (NCI-H23) was 13.8 µM (inactive), the GI50 (NCI-H460) was 9.53 µM (inactive) and the GI50 (NCI-H522) was 6.85 µM (inactive). The GI50 (NCI/ADR-RES) was 20.2 µM (inactive), the GI50 (OVCAR-3) was 13.5 µM (inactive) and the GI50 (OVCAR-4) was 10.5 µM (inactive). For the same compound, the GI50 (OVCAR-5) was 14.8 µM (inactive), the GI50 (OVCAR-8) was 16.1 µM (inactive) and the GI50 (RPMI-8226) was 3.27 µM (inactive). The GI50 (RXF 393) was 2.48 µM (inactive), the GI50 (SF-268) was 8.69 µM (inactive) and the GI50 (SF-295) was 7.76 µM (inactive). The GI50 (SF-539) was 11.4 µM (inactive), the GI50 (SK-MEL-28) was 16.5 µM (inactive) and the GI50 (SK-MEL-2) was 16.4 µM (inactive). For the same compound, the GI50 (SK-MEL-5) was 15.7 µM (inactive), the GI50 (SK-OV-3) was 17.6 µM (inactive) and the GI50 (SN12C) was 16.4 µM (inactive). For the same compound, the GI50 (SNB-19) was 5.92 µM (inactive), the GI50 (SNB-75) was 4.16 µM (inactive) and the GI50 (SNB-78) was 6.53 µM (inactive). For the same compound, the GI50 (SW-620) was 15.7 µM (inactive), the GI50 (U-251) was 6.47 µM (inactive) and the GI50 (UACC-257) was 15.8 µM (inactive). For the same compound, the GI50 (UACC-62) was 11 µM (inactive), the GI50 (UO-31) was 15.1 µM (inactive) and the GI50 (XF498) was 4.43 µM (inactive).

With CC1OC(CO)(n2cnc3c(N)ncnc32)C(O)C1O (stereo not drawn) the GI50 (A498) was > 100 µM (inactive), the GI50 (A549) was > 100 µM (inactive) and the GI50 (CAKI-1) was > 100 µM (inactive). For the same compound, the GI50 (CCRF-CEM) was > 100 µM (inactive), the GI50 (COLO 205) was > 100 µM (inactive) and the GI50 (DLD-1) was > 100 µM (inactive). For the same compound, the GI50 (DMS-114) was > 100 µM (inactive), the GI50 (DMS-273) was > 100 µM (inactive) and the GI50 (EKVX) was > 100 µM (inactive). The GI50 (HCC 2998) was > 100 µM (inactive), the GI50 (HCT-116) was > 100 µM (inactive) and the GI50 (HCT-15) was over 100 µM. The GI50 (HL-60) was > 100 µM (inactive), the GI50 (HOP-18) was > 100 µM (inactive) and the GI50 (HOP-62) was > 100 µM (inactive). For the same compound, the GI50 (HOP-92) was > 100 µM (inactive), the GI50 (HT-29) was > 100 µM (inactive) and the GI50 (IGROV-1) was > 100 µM (inactive). For the same compound, the GI50 (K562) was > 100 µM (inactive), the GI50 (KM-20L2) was > 100 µM (inactive) and the GI50 (KM12) was > 100 µM (inactive). For the same compound, the GI50 (LOX IMVI) was > 100 µM (inactive), the GI50 (M19-MEL) was > 100 µM (inactive) and the GI50 (MCF7) was > 100 µM (inactive). The GI50 (MOLT-4) was > 100 µM (inactive), the GI50 (Malme-3M) was > 100 µM (inactive) and the GI50 (NCI-H226) was > 100 µM (inactive). The GI50 (NCI-H23) was > 100 µM (inactive), the GI50 (NCI-H460) was > 100 µM (inactive) and the GI50 (NCI-H522) was > 100 µM (inactive). The GI50 (NCI/ADR-RES) was > 100 µM (inactive), the GI50 (OVCAR-3) was > 100 µM (inactive) and the GI50 (OVCAR-4) was > 100 µM (inactive). For the same compound, the GI50 (OVCAR-5) was > 100 µM (inactive), the GI50 (OVCAR-8) was > 100 µM (inactive) and the GI50 (RPMI-8226) was > 100 µM (inactive). For the same compound, the GI50 (RXF 393) was > 100 µM (inactive), the GI50 (SF-268) was > 100 µM (inactive) and the GI50 (SF-295) was > 100 µM (inactive). The GI50 (SF-539) was > 100 µM (inactive), the GI50 (SK-MEL-28) was > 100 µM (inactive) and the GI50 (SK-MEL-2) was > 100 µM (inactive). The GI50 (SK-MEL-5) was > 100 µM (inactive), the GI50 (SK-OV-3) was > 100 µM (inactive) and the GI50 (SN12C) was > 100 µM (inactive). The GI50 (SNB-19) was > 100 µM (inactive), the GI50 (SNB-75) was > 100 µM (inactive) and the GI50 (SNB-78) was > 100 µM (inactive). The GI50 (SW-620) was > 100 µM (inactive), the GI50 (U-251) was > 100 µM (inactive) and the GI50 (UACC-257) was > 100 µM (inactive). For the same compound, the GI50 (UACC-62) was > 100 µM (inactive), the GI50 (UO-31) was > 100 µM (inactive) and the GI50 (XF498) was > 100 µM (inactive).
